Where two headings read alike, the source gives them in different places.
Key:
[1] = molecular target: T1, TPM3-TRKA fusion protein (Homo sapiens, UniProt P04629); test: TPM3-TRKA fusion protein levels in KM12 cells (Western blot); assay type: cell-based; settings: read-out: Degradation (at 10 nM)
T1 construct: The resulted chimeric proteins always retain the kinase domain of TRK proteins; TPM3 (fusion partner, N-terminal part of tropomyosin alpha-3, P06753); endogenous in cells; host or cells: KM12 colon cancer cells; the other entry of the earlier key: TPM3 (P06753, Tropomyosin alpha-3 chain)
Procedure, shortened: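 KM12 colon cancer cells were treated with DMSO or compounds at 0.1–100 nM, 0.4–30 nM or other stated concentrations for 4, 8–16 or 16 h. RIPA lysates were BCA-normalized and resolved by SDS-PAGE. TPM3-TRKA was detected by chemiluminescent Western blot, with bands quantified by densitometry.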

[2] = test system: KM12 cells; test: KM12 cell viability (CellTiter-Glo); assay type: cell-based; settings: Homo sapiens
Procedure, shortened: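 KM12 cells seeded at 5000 per well in RPMI 1640 + 10% FBS and exposed 3 days to serial dilutions (11-point 3-fold, 8-point 3-fold from 1000 nM, or 12-point 2-fold). Viability by CellTiter-Glo; IC50 from least-squares nonlinear regression.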

[3] = 16 h, TPM3-TRKA degradation in KM12 cells at 10 nM compound, category of percentage degradation
[4] = 72 h, KM12 cell viability, CellTiter-Glo, three days treatment, read-out: IC50

T1 sequence (P04629 with tags, fused parts or gaps): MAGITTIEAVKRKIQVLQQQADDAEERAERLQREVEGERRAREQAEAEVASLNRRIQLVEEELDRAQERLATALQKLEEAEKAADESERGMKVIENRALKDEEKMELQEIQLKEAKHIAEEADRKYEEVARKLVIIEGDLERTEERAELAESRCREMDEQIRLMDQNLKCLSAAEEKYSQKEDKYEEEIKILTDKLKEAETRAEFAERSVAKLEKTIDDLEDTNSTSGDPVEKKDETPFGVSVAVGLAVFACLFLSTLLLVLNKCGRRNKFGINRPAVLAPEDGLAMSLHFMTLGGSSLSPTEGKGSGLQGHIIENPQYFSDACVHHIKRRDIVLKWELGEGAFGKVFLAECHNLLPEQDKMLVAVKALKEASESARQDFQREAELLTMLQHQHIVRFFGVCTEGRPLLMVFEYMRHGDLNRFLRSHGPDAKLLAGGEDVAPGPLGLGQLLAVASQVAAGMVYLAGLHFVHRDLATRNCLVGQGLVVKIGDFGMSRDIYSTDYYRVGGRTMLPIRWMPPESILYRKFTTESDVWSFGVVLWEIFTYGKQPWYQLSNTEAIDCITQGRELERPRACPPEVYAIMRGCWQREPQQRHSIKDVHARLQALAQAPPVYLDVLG

| percent degradation of TPM3-TRKA protein at 0.01 µM [1, 3] | Compound | IC50 [2, 4] | percent degradation of TPM3-TRKA protein at 0.01 µM ([1]; KM12, 16 h) | IC50 ([2]; KM12, 72 h) |
| --- | --- | --- | --- | --- |
| > 80% | O=C1CCC(N2C(=O)c3ccc(CN4CC(CN5CCN(c6ccc(C(=O)Nc7n[nH]c8ccc(Cc9cc(F)cc(F)c9)cc78)c(NCCF)c6)CC5)C4)cc3C2=O)C(=O)N1 (stereo not drawn) [TR-251] | 46.5 nM | – | – |
| – | O=C1CCC(N2C(=O)c3ccc(CN4CC(N5CCN(c6ccc(C(=O)Nc7n[nH]c8ccc(Cc9cc(F)cc(F)c9)cc78)c(NCCF)c6)CC5)C4)cc3C2=O)C(=O)N1 (stereo not drawn) [TR-252, N—(S-(3,5-Difluorobenzyl)-1H-indazol-3-yl)-4-(4-(1-((2-(2,6-dioxopiperidin-3-yl)-1,3-dioxoisoindolin-5-yl)methyl)azetidin-3-yl)piperazin-1-yl)-2-((2-fluoroethyl)amino)benzamide] | – | > 80% | 47.6 nM |
| > 80% | O=C1CCC(N2Cc3cc(C#CCN4CCN(c5ccc(C(=O)Nc6n[nH]c7ccc(Cc8cc(F)cc(F)c8)cc67)c(NC6CCOCC6)c5)CC4)ccc3C2=O)C(=O)N1 (stereo not drawn) [TR-253, N-(5-(3,5-Difluorobenzyl)-1H-indazol-3-yl)-4-(4-(3-(2-(2,6-dioxopiperidin-3-yl)-1-oxoisoindolin-5-yl)prop-2-yn-1-yl)piperazin-1-yl)-2-((tetrahydro-2H-pyran-4-yl)amino)benzamide] | 6.9 nM | – | – |
| – | O=C1CCC(N2C(=O)c3ccc(CN4CC(N5CCN(c6ccc(C(=O)Nc7n[nH]c8ccc(Cc9cc(F)cc(F)c9)cc78)c(NC7CCOCC7)c6)CC5)C4)cc3C2=O)C(=O)N1 (stereo not drawn) [TR-254, N-(5-(3,5-difluorobenzyl)-1H-indazol-3-yl)-4-(4-(1-((2-(2,6-dioxopiperidin-3-yl)-1,3-dioxoisoindolin-5-yl)methyl)azetidin-3-yl)piperazin-1-yl)-2-((tetrahydro-2H-pyran-4-yl)amino)benzamide] | – | > 80% | 20.3 nM |
| > 80% | O=C1CCC(N2Cc3cc(C#CCN4CCN(c5ccc(C(=O)Nc6n[nH]c7ccc(Cc8cc(F)cc(F)c8)cc67)c(NCCF)c5)CC4)ccc3C2=O)C(=O)N1 (stereo not drawn) [TR-255, N—(S-(3,5-Difluorobenzyl)-1H-indazol-3-yl)-4-(4-(3-(2-(2,6-dioxopiperidin-3-yl)-1-oxoisoindolin-5-yl)prop-2-yn-1-yl)piperazin-1-yl)-2-((2-fluoroethyl)amino)benzamide] | 14.4 nM | – | – |
| 50 to 80% | O=C1CCC(N2Cc3cc(C#CCN4CCN(c5ccc(C(=O)Nc6n[nH]c7ccc(Cc8cc(F)cc(F)c8)cc67)cc5)CC4)ccc3C2=O)C(=O)N1 (stereo not drawn) [TR-256, N—(S-(3,5-Difluorobenzyl)-1H-indazol-3-yl)-4-(4-(3-(2-(2,6-dioxopiperidin-3-yl)-1-oxoisoindolin-5-yl)prop-2-yn-1-yl)piperazin-1˜yl)benzamide] | 46.9 nM | – | – |
| > 80% | Cn1c(=O)n(C2CCC(=O)NC2=O)c2cccc(N3CC(CN4CCN(c5cccc(-c6cnc7ccc(N8CCC[C@@H]8c8cccc(F)c8)nn67)n5)CC4)C3)c21 (stereo partly drawn) [TR-258, 3-(4-(3-((4-(6-(6-((R)-2-(3-fluorophenyl)pyrrolidin-1-yl)imidazo[1,2-b]pyridazin-3-yl)pyridin-2-yl)piperazin-1-yl)methyl)azetidin-1-yl)-3-methyl-2-oxo-2,3-dihydro-1H-benzo[d]imidazol-1-yl)piperidine-2,6-dione] | 10.4 nM | – | – |
| > 80% | Cn1c(=O)n(C2CCC(=O)NC2=O)c2ccc(CCCCN3CCN(c4cccc(-c5cnc6ccc(N7CCC[C@@H]7c7cccc(F)c7)nn56)n4)CC3)cc21 (stereo partly drawn) [TR-259, 3-(5-(4-(4-(6-(6-((R)-2-(3-fluorophenyl)pyrrolidin-1-yl)imidazo[1,2-b]pyridazin-3-yl)pyridin-2-yl)piperazin-1-yl)butyl)-3-methyl-2-oxo-2,3-dihydro-1H-benzo[d]imidazol-1-yl)piperidine-2,6-dione] | 5.3 nM | – | – |
| > 80% | Cn1c(=O)n(C2CCC(=O)NC2=O)c2ccc(C#CCCN3CCN(c4cccc(-c5cnc6ccc(N7CCC[C@@H]7c7cccc(F)c7)nn56)n4)CC3)cc21 (stereo partly drawn) [TR-260, 3-(5-(4-(4-(6-(6-((R)-2-(3-fluorophenyl)pyrrolidin-1-yl)imidazo[1,2-b]pyridazin-3-yl)pyridin-2-yl)piperazin-1-yl)but-1-yn-1-yl)-3-methyl-2-oxo-2,3-dihydro-1H-benzo[d]imidazol-1-yl)piperidine-2,6-dione] | 26.4 nM | – | – |
| – | O=C1CCC(N2C(=O)c3ccc(CN4CC(N5CCN(c6ccc(C(=O)Nc7n[nH]c8ccc(Cc9cc(F)cc(F)c9)cc78)cc6)CC5)C4)cc3C2=O)C(=O)N1 (stereo not drawn) [TR-261, N-(5-(3,5-Difluorobenzyl)-1H-indazol-3-yl)-4-(4-(1-((2-(2,6-dioxopiperidin-3-yl)-1,3-dioxoisoindolin-S-yl)methyl)azetidin-3-yl)piperazin-1-yl)benzamide] | – | 50 to 80% | 366 nM |
| > 80% | O=C1CCC(N2C(=O)c3ccc(CN4CC(CN5CCN(c6ccc(C(=O)Nc7n[nH]c8ccc(Cc9cc(F)cc(F)c9)cc78)cc6)CC5)C4)cc3C2=O)C(=O)N1 (stereo not drawn) [TR-262, N-(5-(3,5-Difluorobenzyl)-1H-indazol-3-yl)-4-(4-((1-((2-(2,6-dioxopiperidin-3-yl)-1,3-dioxoisoindolin-5-yl)methyl)azetidin-3-yl)methyl)piperazin-1-yl)benzamide] | 81 nM | – | – |
| 50 to 80% | O=C1CCC(N2C(=O)c3ccc(NCCN4CCN(c5ccc(C(=O)Nc6n[nH]c7ccc(Cc8cc(F)cc(F)c8)cc67)cc5)CC4)cc3C2=O)C(=O)N1 (stereo not drawn) [TR-263, N-(5-(3,5-difluorobenzyl)-1H-indazol-3-yl)-4-(4-(2-((2-(2,6-dioxopiperidin-3-yl)-1,3-dioxoisoindolin-5-yl)amino)ethyl)piperazin-1-yl)benzamide] | 19.2 nM | – | – |
| > 80% | O=C1CCC(N2C(=O)c3ccc(NCC(=O)N4CCN(c5ccc(C(=O)Nc6n[nH]c7ccc(Cc8cc(F)cc(F)c8)cc67)cc5)CC4)cc3C2=O)C(=O)N1 (stereo not drawn) [TR-264, N-(5-(3,5-difluorobenzyl)-1H-indazol-3-yl)-4-(4-((2˜ (2,6-dioxopiperidin-3-yl)-1,3-dioxoisoindolin-5-yl)glycyl)piperazin-1-yl)benzamide] | 9.9 nM | – | – |
| > 80% | O=C1CCC(N2C(=O)c3ccc(N4CC(CN5CCN(c6ccc(C(=O)Nc7n[nH]c8ccc(Cc9cc(F)cc(F)c9)cc78)cc6)CC5)C4)cc3C2=O)C(=O)N1 (stereo not drawn) [TR-265, N-(5˜ (3,5-difluorobenzyl)-1H-indazol-3-yl)-4-(4-((1-(2-(2,6-dioxopiperidin-3-yl)-1,3-dioxoisoindolin-5-yl)azetidin-3-yl)methyl)piperazin-1-yl)benzamide] | 13.3 nM | – | – |
| > 80% | O=C1CCC(N2C(=O)c3ccc(NCC(=O)N4CCN(c5ccc(C(=O)Nc6n[nH]c7ccc(Cc8cc(F)cc(F)c8)cc67)c(NCCF)c5)CC4)cc3C2=O)C(=O)N1 (stereo not drawn) [TR-266, N-(5-(3,5-difluorobenzyl)-1H-indazol-3-yl)-4-(4˜ ((2-(2,6-dioxopiperidin-3-yl)-1,3-dioxoisoindolin-5-yl)glycyl)piperazin-1-yl)-2-((2-fluoroethyl)amino)benzamide] | 7.2 nM | – | – |

From US12410171B2, “Tropomyosin receptor kinase (TRK) degradation compounds and methods of use” (Cullgen (Shanghai), Inc., priority 2020, dated 2025)
